Assays:
Experiment in all cases: Carna kinome panel
Assay type in all cases: biochemical
[1] = biological target: GSK3β (Homo sapiens (Human), UniProt P49841)
Protocol: A selection of compounds was screened against a selected panel of kinases based on single point inhibitory ability to determine absolute inhibitory activity, leading to selectivity measurements. The assay utilized was identical to that of the single point inhibitory activity determination (MSA) but run in dose response. A solution of 4× inhibitor (5 μL), 4× substrate/ATP Metal solution (5 μL), and 2× Kinase solution (10 μL) was prepared with assay buffer (20 mM HEPES, 0.01% Triton X-100, 2 mM DTT, pH 7.5) and mixed/incubated in 384 well plates for 1 or 5 hours depending on the kinase, at room temperature. A solution of termination buffer (QuickScout Screening assist MSA; Carna Biosciences) (60 μL) was added to each well. The entire reaction mixture was then applied to a LabChip3000 system (Caliper Life Science) and the product and substrate peptide peaks were separated and quantified.
Briefly, a selection of compounds was screened against a panel of kinases at a single concentration of 10 μM. […] The entire reaction mixture was then applied to a LabChip3000 system (Caliper Life Science), and the product and substrate peptide peaks were separated and quantified. […] The entire reaction mixture was then applied to a LabChip3000 system (Caliper Life Science), and the product and substrate peptide peaks were separated and quantified.

[2] = biological target: MNK1 (Homo sapiens (Human), UniProt Q9BUB5); conditions: read-out: % Inhibition at 10 μM of the test compound
[3] = biological target: SPHK2 (Homo sapiens (Human), UniProt Q9NRA0); conditions: read-out: % Inhibition at 10 μM of the test compound
[4] = biological target: TBK1 (Homo sapiens (Human), UniProt Q9UHD2); conditions: read-out: % Inhibition at 10 μM of the test compound
[5] = biological target: ALK(F1174L) (Homo sapiens (Human), UniProt Q9UM73, F1174L); conditions: read-out: % Inhibition at 10 μM of the test compound
[6] = biological target: skMLCK (Homo sapiens (Human), UniProt Q9H1R3); conditions: read-out: % Inhibition at 10 μM of the test compound
[7] = biological target: CLK1 (Homo sapiens (Human), UniProt P49759); conditions: read-out: % Inhibition at 10 μM of the test compound
[8] = biological target: FMS (Homo sapiens (Human), UniProt P07333); conditions: read-out: % Inhibition at 10 μM of the test compound
[9] = biological target: TNIK (Homo sapiens (Human), UniProt Q9UKE5); conditions: read-out: % Inhibition at 10 μM of the test compound
[10] = biological target: RON (Homo sapiens (Human), UniProt Q04912); conditions: read-out: % Inhibition at 10 μM of the test compound
[11] = tested on: COT_Cascade
Protocol: Briefly, a selection of compounds was screened against a panel of kinases at a single concentration of 10 μM. […] This was completed using one of two assays, depending on the kinase being examined: 1) IMAP Assay. A solution of 4× inhibitor, 4× substrate/ATP/metal solution and 2× kinase solution was prepared with assay buffer (20 mM HEPES, 0.01% Tween-20, 2 mM DTT, pH 7.4) and mixed, then incubated in 384-well black plates for 1 hour at room temperature. The IMAP binding reagent (IMAP Screening Express kit; Molecular Devices) was added to each well and incubated for 30 minutes. […] 2) Off-Chip Mobility Shift Assay (MSA). A solution of 4× inhibitor, 4× substrate/ATP/metal solution and 2× kinase solution was prepared with assay buffer (20 mM HEPES, 0.01% Triton X-100, 2 mM DTT, pH 7.5) and mixed, then incubated in 384-well plates for 1 or 5 hours depending on the kinase, at room temperature. Termination buffer (QuickScout Screening assist MSA; Carna Biosciences) was added to each well. The entire reaction mixture was then applied to a LabChip3000 system (Caliper Life Science), and the product and substrate peptide peaks were separated and quantified. […] The entire reaction mixture was then applied to a LabChip3000 system (Caliper Life Science), and the product and substrate peptide peaks were separated and quantified.

[12] = biological target: PKCγ (Homo sapiens (Human), UniProt P05129); conditions: read-out: % Inhibition at 10 μM of the test compound
[13] = biological target: ROS (Homo sapiens (Human), UniProt P08922); conditions: read-out: % Inhibition at 10 μM of the test compound
ROS, sequence (P08922 28-2347): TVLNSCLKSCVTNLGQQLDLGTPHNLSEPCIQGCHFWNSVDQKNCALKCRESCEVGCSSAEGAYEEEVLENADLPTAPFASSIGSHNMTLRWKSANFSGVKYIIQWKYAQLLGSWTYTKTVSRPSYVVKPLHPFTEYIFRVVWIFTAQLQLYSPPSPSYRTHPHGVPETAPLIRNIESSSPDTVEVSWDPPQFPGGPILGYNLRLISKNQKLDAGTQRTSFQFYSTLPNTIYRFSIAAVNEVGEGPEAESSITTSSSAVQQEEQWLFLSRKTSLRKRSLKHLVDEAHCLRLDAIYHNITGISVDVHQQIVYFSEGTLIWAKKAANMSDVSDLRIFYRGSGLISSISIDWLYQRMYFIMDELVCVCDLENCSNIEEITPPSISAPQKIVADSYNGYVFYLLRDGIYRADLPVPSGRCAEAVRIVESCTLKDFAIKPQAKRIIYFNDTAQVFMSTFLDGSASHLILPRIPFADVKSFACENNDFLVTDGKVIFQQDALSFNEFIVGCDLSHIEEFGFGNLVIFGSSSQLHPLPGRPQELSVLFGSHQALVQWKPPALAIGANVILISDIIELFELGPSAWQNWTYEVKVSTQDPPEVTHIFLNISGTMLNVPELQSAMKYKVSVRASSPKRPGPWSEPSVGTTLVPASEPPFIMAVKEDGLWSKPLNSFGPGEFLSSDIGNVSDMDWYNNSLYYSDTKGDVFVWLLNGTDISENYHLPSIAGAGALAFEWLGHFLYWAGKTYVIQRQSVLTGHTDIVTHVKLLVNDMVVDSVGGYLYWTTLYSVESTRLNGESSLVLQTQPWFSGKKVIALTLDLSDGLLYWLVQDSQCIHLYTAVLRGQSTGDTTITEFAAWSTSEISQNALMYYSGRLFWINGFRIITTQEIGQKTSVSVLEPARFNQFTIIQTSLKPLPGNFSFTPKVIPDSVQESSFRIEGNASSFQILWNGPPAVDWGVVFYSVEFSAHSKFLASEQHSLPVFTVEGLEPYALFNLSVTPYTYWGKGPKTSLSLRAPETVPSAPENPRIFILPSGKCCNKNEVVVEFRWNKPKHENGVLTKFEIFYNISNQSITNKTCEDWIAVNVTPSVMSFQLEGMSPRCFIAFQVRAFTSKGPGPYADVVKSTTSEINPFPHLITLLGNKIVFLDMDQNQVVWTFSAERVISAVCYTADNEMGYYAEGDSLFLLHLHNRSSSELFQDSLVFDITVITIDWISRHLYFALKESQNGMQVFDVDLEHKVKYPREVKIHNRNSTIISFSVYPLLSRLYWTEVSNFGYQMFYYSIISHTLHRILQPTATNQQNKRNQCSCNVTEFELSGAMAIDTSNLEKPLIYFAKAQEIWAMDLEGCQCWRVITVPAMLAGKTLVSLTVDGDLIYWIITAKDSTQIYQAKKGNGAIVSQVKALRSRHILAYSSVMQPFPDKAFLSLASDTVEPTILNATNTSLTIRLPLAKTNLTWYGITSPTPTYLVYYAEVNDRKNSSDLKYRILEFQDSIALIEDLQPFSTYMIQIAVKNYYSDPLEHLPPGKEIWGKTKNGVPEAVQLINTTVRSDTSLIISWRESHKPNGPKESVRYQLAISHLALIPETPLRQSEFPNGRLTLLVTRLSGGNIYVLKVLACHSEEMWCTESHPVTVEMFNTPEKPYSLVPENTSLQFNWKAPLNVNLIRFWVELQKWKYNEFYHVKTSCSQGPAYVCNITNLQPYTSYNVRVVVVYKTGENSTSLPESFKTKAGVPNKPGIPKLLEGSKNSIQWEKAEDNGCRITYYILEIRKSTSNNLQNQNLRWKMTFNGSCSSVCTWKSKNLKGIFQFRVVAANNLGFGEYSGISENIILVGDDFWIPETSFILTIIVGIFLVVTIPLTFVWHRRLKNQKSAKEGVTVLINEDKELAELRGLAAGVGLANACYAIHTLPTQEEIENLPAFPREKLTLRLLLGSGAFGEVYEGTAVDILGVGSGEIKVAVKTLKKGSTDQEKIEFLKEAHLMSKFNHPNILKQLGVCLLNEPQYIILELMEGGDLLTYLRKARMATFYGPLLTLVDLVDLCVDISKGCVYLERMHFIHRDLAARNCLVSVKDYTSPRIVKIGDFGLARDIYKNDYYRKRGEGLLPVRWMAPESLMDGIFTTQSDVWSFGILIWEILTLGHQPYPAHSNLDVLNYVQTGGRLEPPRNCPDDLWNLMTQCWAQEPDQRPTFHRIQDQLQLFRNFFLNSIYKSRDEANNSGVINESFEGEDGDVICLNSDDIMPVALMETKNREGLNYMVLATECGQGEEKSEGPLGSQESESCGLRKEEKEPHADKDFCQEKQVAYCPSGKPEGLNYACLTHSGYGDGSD

[14] = biological target: CDK6/CycD3 (Homo sapiens (Human), UniProt Q00534); conditions: read-out: % Inhibition at 10 μM of the test compound
[15] = biological target: FGFR3 (Homo sapiens (Human), UniProt P22607); conditions: read-out: % Inhibition at 10 μM of the test compound
[16] = biological target: IRAK4 (Homo sapiens (Human), UniProt Q9NWZ3); conditions: read-out: % Inhibition at 10 μM of the test compound
[17] = biological target: HIPK1 (Homo sapiens (Human), UniProt Q86Z02); conditions: read-out: % Inhibition at 10 μM of the test compound
[18] = biological target: IKKβ (Homo sapiens (Human), UniProt O14920); conditions: read-out: % Inhibition at 10 μM of the test compound
[19] = biological target: SRPK1 (Homo sapiens (Human), UniProt Q96SB4); conditions: read-out: % Inhibition at 10 μM of the test compound
[20] = biological target: PIM2 (Homo sapiens (Human), UniProt Q9P1W9); conditions: read-out: % Inhibition at 10 μM of the test compound
[21] = biological target: MUSK (Homo sapiens (Human), UniProt O15146); conditions: read-out: % Inhibition at 10 μM of the test compound
MUSK, sequence (O15146 24-869): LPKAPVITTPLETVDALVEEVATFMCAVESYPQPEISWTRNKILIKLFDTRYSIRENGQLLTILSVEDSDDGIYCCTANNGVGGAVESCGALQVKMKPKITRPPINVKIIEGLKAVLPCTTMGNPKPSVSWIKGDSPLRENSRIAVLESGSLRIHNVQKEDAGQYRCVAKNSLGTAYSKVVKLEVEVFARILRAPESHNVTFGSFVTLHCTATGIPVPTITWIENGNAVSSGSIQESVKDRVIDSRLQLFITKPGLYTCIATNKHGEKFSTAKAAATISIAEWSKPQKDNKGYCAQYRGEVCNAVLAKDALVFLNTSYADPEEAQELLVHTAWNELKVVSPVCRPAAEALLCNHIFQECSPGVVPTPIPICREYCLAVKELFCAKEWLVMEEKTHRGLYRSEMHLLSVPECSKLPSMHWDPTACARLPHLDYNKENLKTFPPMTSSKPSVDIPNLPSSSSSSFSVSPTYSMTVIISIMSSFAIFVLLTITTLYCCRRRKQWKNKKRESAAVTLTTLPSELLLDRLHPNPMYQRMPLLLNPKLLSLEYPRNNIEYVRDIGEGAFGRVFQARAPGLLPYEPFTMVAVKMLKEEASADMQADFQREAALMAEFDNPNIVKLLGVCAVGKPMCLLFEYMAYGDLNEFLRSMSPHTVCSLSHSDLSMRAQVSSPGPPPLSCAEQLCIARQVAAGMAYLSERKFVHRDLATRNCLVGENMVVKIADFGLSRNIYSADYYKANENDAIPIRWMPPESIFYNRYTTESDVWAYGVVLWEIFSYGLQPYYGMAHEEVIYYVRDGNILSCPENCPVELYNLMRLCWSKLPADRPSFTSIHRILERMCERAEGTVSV

[22] = biological target: MLK3_Cascade (Homo sapiens (Human), UniProt Q16584); conditions: read-out: % Inhibition at 10 μM of the test compound
[23] = biological target: WNK2 (Homo sapiens (Human), UniProt Q9Y3S1); conditions: read-out: % Inhibition at 10 μM of the test compound
[24] = biological target: MRCKα (Homo sapiens (Human), UniProt Q5VT25); conditions: read-out: % Inhibition at 10 μM of the test compound
[25] = biological target: LYNa (Homo sapiens (Human), UniProt P07948); conditions: read-out: % Inhibition at 10 μM of the test compound
[26] = biological target: MLK1_Cascade (Homo sapiens (Human), UniProt P80192); conditions: read-out: % Inhibition at 10 μM of the test compound
[27] = biological target: CaMK2β (Homo sapiens (Human), UniProt Q13554); conditions: read-out: % Inhibition at 10 μM of the test compound
[28] = biological target: PGK (Homo sapiens (Human), UniProt Q13976); conditions: read-out: % Inhibition at 10 μM of the test compound
[29] = biological target: BTK (Homo sapiens (Human), UniProt Q06187); conditions: read-out: % Inhibition at 10 μM of the test compound
[30] = biological target: PDK1 (Homo sapiens (Human), UniProt O15530); conditions: read-out: % Inhibition at 10 μM of the test compound
PDK1, sequence (O15530 whole entry): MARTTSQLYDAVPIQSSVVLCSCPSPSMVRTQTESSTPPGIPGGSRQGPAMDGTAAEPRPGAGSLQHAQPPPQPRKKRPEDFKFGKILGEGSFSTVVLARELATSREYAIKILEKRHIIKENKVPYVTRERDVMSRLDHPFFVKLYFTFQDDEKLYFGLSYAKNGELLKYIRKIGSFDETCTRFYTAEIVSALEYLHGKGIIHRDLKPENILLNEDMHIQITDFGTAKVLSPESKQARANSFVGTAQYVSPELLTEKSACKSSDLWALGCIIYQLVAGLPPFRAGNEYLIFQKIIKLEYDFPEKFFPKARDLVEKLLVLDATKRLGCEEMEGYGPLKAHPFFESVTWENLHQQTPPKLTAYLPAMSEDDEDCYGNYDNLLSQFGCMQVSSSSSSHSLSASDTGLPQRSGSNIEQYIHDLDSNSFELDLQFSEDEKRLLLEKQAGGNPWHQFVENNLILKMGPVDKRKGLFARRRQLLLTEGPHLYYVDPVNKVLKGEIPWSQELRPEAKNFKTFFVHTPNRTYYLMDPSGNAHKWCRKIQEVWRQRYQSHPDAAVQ

[31] = biological target: CK1γ1 (Homo sapiens (Human), UniProt Q9HCP0); conditions: read-out: % Inhibition at 10 μM of the test compound
CK1γ1, sequence (Q9HCP0 whole entry): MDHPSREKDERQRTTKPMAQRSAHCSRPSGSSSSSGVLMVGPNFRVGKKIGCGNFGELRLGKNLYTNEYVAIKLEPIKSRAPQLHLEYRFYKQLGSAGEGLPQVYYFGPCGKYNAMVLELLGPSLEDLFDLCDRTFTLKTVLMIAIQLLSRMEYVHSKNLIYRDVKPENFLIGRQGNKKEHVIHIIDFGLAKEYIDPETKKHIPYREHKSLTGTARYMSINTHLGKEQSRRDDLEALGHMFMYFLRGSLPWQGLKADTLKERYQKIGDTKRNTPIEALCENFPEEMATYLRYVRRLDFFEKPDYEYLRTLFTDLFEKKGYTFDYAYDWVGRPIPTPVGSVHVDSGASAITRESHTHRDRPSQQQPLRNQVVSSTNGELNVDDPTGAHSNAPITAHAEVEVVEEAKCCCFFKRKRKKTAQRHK

[32] = biological target: FLT1 (Homo sapiens (Human), UniProt P17948); conditions: read-out: % Inhibition at 10 μM of the test compound
[33] = biological target: KIT(D816E) (Homo sapiens (Human), UniProt P10721, D816E); conditions: read-out: % Inhibition at 10 μM of the test compound
[34] = biological target: WNK1 (Homo sapiens (Human), UniProt Q9H4A3); conditions: read-out: % Inhibition at 10 μM of the test compound
[35] = biological target: BLK (Homo sapiens (Human), UniProt P51451); conditions: read-out: % Inhibition at 10 μM of the test compound
[36] = biological target: MAP2K7_Cascade (Homo sapiens (Human), UniProt O14733); conditions: read-out: % Inhibition at 10 μM of the test compound
[37] = biological target: MER (Homo sapiens (Human), UniProt Q12866); conditions: read-out: % Inhibition at 10 μM of the test compound
[38] = biological target: PKACβ (Homo sapiens (Human), UniProt P22694); conditions: read-out: % Inhibition at 10 μM of the test compound
[39] = biological target: MELK (Homo sapiens (Human), UniProt Q14680); conditions: read-out: % Inhibition at 10 μM of the test compound
[40] = biological target: PBK (Homo sapiens (Human), UniProt Q96KB5); conditions: read-out: % Inhibition at 10 μM of the test compound
PBK, sequence (Q96KB5 whole entry, species assumed): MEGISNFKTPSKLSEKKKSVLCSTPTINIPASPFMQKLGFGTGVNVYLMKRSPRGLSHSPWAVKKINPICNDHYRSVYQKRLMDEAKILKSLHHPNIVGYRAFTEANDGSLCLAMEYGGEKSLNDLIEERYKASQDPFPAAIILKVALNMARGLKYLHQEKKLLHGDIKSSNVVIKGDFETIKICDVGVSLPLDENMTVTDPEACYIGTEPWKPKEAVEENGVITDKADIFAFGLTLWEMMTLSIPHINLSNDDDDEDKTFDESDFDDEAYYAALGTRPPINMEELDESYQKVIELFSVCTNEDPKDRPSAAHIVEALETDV

[41] = biological target: MOS_Cascade (Homo sapiens (Human), UniProt P00540); conditions: read-out: % Inhibition at 10 μM of the test compound

GSK3β, sequence (P49841 whole entry): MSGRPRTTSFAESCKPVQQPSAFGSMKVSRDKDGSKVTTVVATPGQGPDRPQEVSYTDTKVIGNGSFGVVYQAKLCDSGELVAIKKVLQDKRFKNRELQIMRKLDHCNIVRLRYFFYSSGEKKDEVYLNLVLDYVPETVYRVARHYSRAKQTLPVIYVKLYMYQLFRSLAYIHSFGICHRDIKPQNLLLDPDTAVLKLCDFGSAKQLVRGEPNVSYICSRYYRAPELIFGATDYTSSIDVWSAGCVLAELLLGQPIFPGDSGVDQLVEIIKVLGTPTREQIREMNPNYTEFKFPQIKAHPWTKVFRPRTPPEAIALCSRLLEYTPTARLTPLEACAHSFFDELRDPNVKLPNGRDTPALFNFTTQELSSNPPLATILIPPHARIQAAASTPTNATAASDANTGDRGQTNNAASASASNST

CCC1(c2ccccc2)C2=C(CC(C)(C)CC2=O)Nc2ncsc21 (stereo not drawn) [Compound 1, 9-Ethyl-6,6-dimethyl-9-phenyl-5,6,7,9-tetrahydrothiazolo[4,5-b]quinolin-8(4H)-one]
IC50 ([1]; GSK3β): 0.137 µM
inhibition at 10 µM ([1]; read-out: % Inhibition at 10 μM of the test compound): 97.7%
inhibition at 10 µM [2]: -3.4%
inhibition at 10 µM [3]: -0.8%
inhibition at 10 µM [4]: -5.3%
inhibition at 10 µM [5]: 1.8%
inhibition at 10 µM [6]: 9.7%
inhibition at 10 µM [7]: -7.2%
inhibition at 10 µM [8]: 0.3%
inhibition at 10 µM [9]: 8.6%
inhibition at 10 µM [10]: -3.9%
% Inhibition at 10 μM of the test compound [11]: −1.5%
inhibition at 10 µM [12]: -7.7%
inhibition at 10 µM [13]: -0.2%
inhibition at 10 µM [14]: 5.5%
inhibition at 10 µM [15]: 1.6%
inhibition at 10 µM [16]: -1.2%
inhibition at 10 µM [17]: 0.3%
inhibition at 10 µM [18]: 2.3%
inhibition at 10 µM [19]: -0.3%
inhibition at 10 µM [20]: 0.3%
inhibition at 10 µM [21]: 0%
inhibition at 10 µM [22]: 7.3%
inhibition at 10 µM [23]: 0.5%
inhibition at 10 µM [24]: 3.3%
inhibition at 10 µM [25]: 6%
inhibition at 10 µM [26]: 7.5%
inhibition at 10 µM [27]: 2.8%
inhibition at 10 µM [28]: 0.9%
inhibition at 10 µM [29]: -1.6%
inhibition at 10 µM [30]: -4%
inhibition at 10 µM [31]: 1.2%
inhibition at 10 µM [32]: 6.2%
inhibition at 10 µM [33]: -0.2%
inhibition at 10 µM [34]: -2.1%
inhibition at 10 µM [35]: 5%
inhibition at 10 µM [36]: 2.8%
inhibition at 10 µM [37]: 3.8%
inhibition at 10 µM [38]: -0.8%
inhibition at 10 µM [39]: 1.6%
inhibition at 10 µM [40]: 0.8%
inhibition at 10 µM [41]: 12.4%

Reference: patent US11203601B2, “Tricyclic compounds as glycogen synthase kinase 3 (GSK3) inhibitors and uses thereof” (The Broad Institute, Inc., priority 2017, dated 2021)
